What was measured:
Type in all cases: functional
Bacillus cereus = assay: Antimicrobial activity against Bacillus cereus RSKK 863 after 24 hr by broth microdilution assay
Staphylococcus aureus = assay: Antimicrobial activity against Staphylococcus aureus ATCC 25923 after 24 hr by broth microdilution assay
Escherichia coli = assay: Antimicrobial activity against Escherichia coli ATCC 11230 after 24 hr by broth microdilution assay

Structure (SMILES) | -logMIC (Bacillus cereus) | -logMIC (Staphylococcus aureus) | -logMIC (Escherichia coli)
O=S(=O)(NCCCNS(=O)(=O)c1ccccc1)c1ccccc1 | 3.36 | 3.285 | 3.49
COc1ccc(S(=O)(=O)NCCCNS(=O)(=O)c2ccc(OC)cc2)cc1 | 3.42 | 3.46 | 3.511
CCS(=O)(=O)NCCCCNS(=O)(=O)CC | 2.638 | 2.637 | 2.69
Cc1ccc(S(=O)(=O)NCCCNS(=O)(=O)c2ccc(C)cc2)cc1 | 3.38 | 3.3 | 3.52
CCCS(=O)(=O)NCCCCNS(=O)(=O)CCC | 2.95 | 2.933 | 3.119
CS(=O)(=O)NCCCNS(C)(=O)=O | 2.864 | 2.925 | 2.97
CCCS(=O)(=O)NCCCCCNS(=O)(=O)CCC | 2.78 | 2.96 | 3.191
Cc1cccc(S(=O)(=O)NCCNS(=O)(=O)c2cccc(C)c2)c1 | 3.48 | 3.522 | 3.58
O=S(=O)(NCCCCCNS(=O)(=O)c1ccccc1)c1ccccc1 | 3.2 | 3.38 | 3.496
Cc1ccccc1S(=O)(=O)NCCNS(=O)(=O)c1ccccc1C | 3.56 | 3.638 | 3.7
CCCS(=O)(=O)NCCCNS(=O)(=O)CCC | 3.058 | 3.009 | 3.104
CCCCS(=O)(=O)NCCCCNS(=O)(=O)CCCC | 2.85 | 2.829 | 2.857
CCS(=O)(=O)NCCCCCNS(=O)(=O)CC | 2.58 | 2.61 | 2.67
CS(=O)(=O)NCCCCNS(C)(=O)=O | 2.84 | 2.9 | 2.95
Cc1ccc(S(=O)(=O)NCCCCNS(=O)(=O)c2ccc(C)cc2)cc1 | 3.35 | 3.26 | 3.5
O=S(=O)(NCCCCNS(=O)(=O)c1ccccc1)c1ccccc1 | 3.358 | 3.24 | 3.48
COc1ccc(S(=O)(=O)NCCNS(=O)(=O)c2ccc(OC)cc2)cc1 | 3.46 | 3.49 | 3.56

Structure (SMILES) | -logMIC (Bacillus cereus) | -logMIC (Staphylococcus aureus) | -logMIC (Escherichia coli)
COc1ccccc1S(=O)(=O)NCCCNS(=O)(=O)c1ccccc1OC | 3.6 | 3.55 | 3.711
Cc1cccc(S(=O)(=O)NCCCNS(=O)(=O)c2cccc(C)c2)c1 | 3.44 | 3.48 | 3.57
Cc1ccccc1S(=O)(=O)NCCCCNS(=O)(=O)c1ccccc1C | 3.505 | 3.54 | 3.64
CS(=O)(=O)NCCCCCNS(C)(=O)=O | 2.828 | 2.88 | 2.94
Cc1ccccc1S(=O)(=O)NCCCNS(=O)(=O)c1ccccc1C | 3.542 | 3.6 | 3.68
COc1cccc(S(=O)(=O)NCCCNS(=O)(=O)c2cccc(OC)c2)c1 | 3.55 | 3.5 | 3.59
CCS(=O)(=O)NCCNS(=O)(=O)CC | 2.66 | 2.66 | 2.72
COc1cccc(S(=O)(=O)NCCNS(=O)(=O)c2cccc(OC)c2)c1 | 3.58 | 3.52 | 3.6
O=S(=O)(NCCNS(=O)(=O)c1ccccc1)c1ccccc1 | 3.37 | 3.38 | 3.51
COc1ccccc1S(=O)(=O)NCCNS(=O)(=O)c1ccccc1OC | 3.66 | 3.58 | 3.72
Cc1cccc(S(=O)(=O)NCCCCNS(=O)(=O)c2cccc(C)c2)c1 | 3.41 | 3.47 | 3.55
CCCS(=O)(=O)NCCNS(=O)(=O)CCC | 3.179 | 3.003 | 3.258
Cc1ccc(S(=O)(=O)NCCNS(=O)(=O)c2ccc(C)cc2)cc1 | 3.4 | 3.4 | 3.53
CCCCS(=O)(=O)NCCCNS(=O)(=O)CCCC | 2.917 | 2.861 | 3.116
CCS(=O)(=O)NCCCNS(=O)(=O)CC | 2.642 | 2.642 | 2.7
CS(=O)(=O)NCCNS(C)(=O)=O | 2.876 | 2.99 | 2.99
CCCCS(=O)(=O)NCCNS(=O)(=O)CCCC | 2.83 | 2.974 | 3.12

Source: ChEMBL document CHEMBL3045628, “Quantitative structureactivity relationships studies for prediction of antimicrobial activity of synthesized disulfonamide derivatives” (2011)
